Where two headings read alike, the source gives them in different places.
What was measured:
[1] = target: Candida albicans isocitrate lyase (ICL) (Candida albicans, UniProt Q9P8Q7); assay: Inhibition of the isocitrate lyase (ICL) activity assay; assay type: biochemical; settings: for inhibitory activity towards ICL (in words): even at high concentrations (100 μg/mL)
Experimental: The formation of glyoxylate phenylhydrazone in the presence of phenylhydrazine and isocitrate was measured spectrophotometrically at 324 nm. The enzyme reaction mixture (1 mL) included 1.27 mM threo-DS (+) isocitrate, 3.75 mM MgCl2, 4.1 mM phenylhydrazine, 20 mM sodium phosphate buffer (pH 7.0), and 2.5 μg/mL purified C. albicans ICL. The reaction was performed at 37 °C for 30 min, and the protein concentration was measured using the Bradford method and a Bio-Rad protein assay Kit (Bio-Rad, Alfred Nobel Dr. Hercules, CA, USA) with bovine serum albumin as a standard.

[2] = test system: HCT116, A549, SNU638, SK-HEP1, K562 and MDA-MB231 human carcinoma cell lines; assay: Anti-proliferative activity, SRB assay, panel of six human carcinoma cell lines; assay type: cell-based; settings: 72 h
Experimental: (§1) Cell proliferation was analyzed using the sulforhodamine B (SRB) assay. Six human cancer cell lines (HCT116, MDA-MB231, SNU638, A549, K562, and SK-HEP1 at 3 × 10^4 cells/mL) were seeded in 96-well plates at different compound concentrations before incubating at 37 °C in a humidified atmosphere with 5% CO2. After 72 h of treatment, the cells were fixed with a 10% TCA solution for 1 h before staining the cellular proteins with 0.4% SRB in 1% acetic acid. The stained cells were dissolved in 10 mM Tris buffer (pH 10.0). The effects of the compounds on cell proliferation were calculated as percentages relative to the solvent-treated control. In addition, the IC50 values were determined by nonlinear regression analysis (percent survival versus concentration).

[3] = test system: HCT116 (colon cancer) cells; assay: Anti-proliferative activity, SRB assay, HCT116; assay type: cell-based; settings: Homo sapiens, HCT-116, 72 h, read-out: IC50, cytotoxicity against HCT116
Experimental: as §1

A549 (lung cancer) cells = assay: Anti-proliferative activity, SRB assay, A549; assay type: cell-based; settings: Homo sapiens, A549, 72 h, read-out: IC50, cytotoxicity against A549
Experimental: as §1

[4] = test system: SNU638 (gastric cancer) cells; assay: Anti-proliferative activity, SRB assay, SNU638; assay type: cell-based; settings: Homo sapiens, SNU-638, 72 h, read-out: IC50, cytotoxicity against SNU638
Experimental: as §1

[5] = test system: SK-HEP1 (liver cancer) cells; assay: Anti-proliferative activity, SRB assay, SK-HEP1; assay type: cell-based; settings: Homo sapiens, SK-HEP1, 72 h, read-out: IC50, cytotoxicity against SK-HEP1
Experimental: as §1

[6] = test system: K562 (leukemia cancer) cells; assay: Anti-proliferative activity, SRB assay, K562; assay type: cell-based; settings: Homo sapiens, K562, 72 h, read-out: IC50, cytotoxicity against K562
Experimental: as §1

[7] = test system: MDA-MB231 (breast cancer) cells; assay: Anti-proliferative activity, SRB assay, MDA-MB231; assay type: cell-based; settings: Homo sapiens, MDA-MB-231, 72 h, read-out: IC50, cytotoxicity against MDA-MB231
Experimental: as §1

[8] = purified C. albicans ICL 2.5 μg/mL, 37 °C, 30 min, pH 7.0, read-out: IC50, inhibition of Candida albicans isocitrate lyase (ICL)

Candida albicans isocitrate lyase (ICL), sequence (Q9P8Q7 whole entry): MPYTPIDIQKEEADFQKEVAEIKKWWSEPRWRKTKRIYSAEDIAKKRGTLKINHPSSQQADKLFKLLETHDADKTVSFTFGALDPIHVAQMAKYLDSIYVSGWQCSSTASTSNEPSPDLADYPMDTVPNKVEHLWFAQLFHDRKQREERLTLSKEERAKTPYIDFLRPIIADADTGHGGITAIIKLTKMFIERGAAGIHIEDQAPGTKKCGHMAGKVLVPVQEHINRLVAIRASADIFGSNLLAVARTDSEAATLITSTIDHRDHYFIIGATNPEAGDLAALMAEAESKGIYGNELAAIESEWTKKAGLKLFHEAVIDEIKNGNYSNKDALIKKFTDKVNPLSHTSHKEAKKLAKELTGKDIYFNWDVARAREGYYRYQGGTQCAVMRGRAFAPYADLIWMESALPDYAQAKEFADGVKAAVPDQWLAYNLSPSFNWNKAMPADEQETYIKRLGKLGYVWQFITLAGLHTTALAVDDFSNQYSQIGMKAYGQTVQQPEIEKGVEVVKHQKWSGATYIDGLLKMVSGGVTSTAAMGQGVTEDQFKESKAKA

| SMILES | IC50 [1, 8] [µM] | IC50 [1] [µM] | IC50 [3] [µM] | IC50 (A549 (lung cancer) cells) [µM] | IC50 [4] [µM] | IC50 [5] [µM] | IC50 [6] [µM] | IC50 [7] [µM] | inhibitory activity towards ICL (in words) [1] | further results |
| --- | --- | --- | --- | --- | --- | --- | --- | --- | --- | --- |
| O=C(O)CC[N+](=O)[O-] [3-nitropropionic acid, reference compound] | 35.2 | – | – | – | – | – | – | – | – | – |
| C=C1Oc2cc(OC)cc(C(=O)OC[C@H]3O[C@H](OC[C@H]4O[C@H](O)[C@H](O)[C@@H](O)[C@@H]4O)[C@H](O)[C@@H](O)[C@@H]3O)c2NC1=O [Compound 1, arcticoside] | 30.4 | – | – | – | – | – | – | – | – | cytotoxicity against human carcinoma cell lines (in words) [2]: did not display notable inhibitory activity |
| C=C1Oc2cc(OC)cc(C(=O)O[C@H]3COC(=O)C[C@H](N)c4cc(O)c(c(Cl)c4)O[C@@H]4c5ccc3c(Cl)c5C3=CC=C[C@@]34O[C@@H]3OC(C)(C)[C@@H](N(C)C)[C@@H](O)[C@H]3O)c2NC1=O [Compound 2, C-1027 chromophore-V] | – | 37.9 | 2.7 | 14.7 | 9.8 | 7.9 | 25.1 | 0.9 | – | – |
| C=C1Oc2cc(OC)cc(C(=O)O[C@H]3COC(=O)C[C@H](N)c4cc(O)c(c(Cl)c4)O[C@@H]4c5ccc3cc5C3=CC=C[C@@]34O[C@@H]3OC(C)(C)[C@@H](N(C)C)[C@@H](O)[C@H]3O)c2NC1=O [Compound 3, C-1027 chromophore-III] | – | 25.6 | 0.6 | 2.2 | 1.1 | 0.9 | 4.8 | 44 | – | – |
| CC(=O)N[C@H]1CC(=O)OC[C@H](O)c2ccc3c(c2Cl)C2=CC=C[C@]2(O[C@@H]2OC(C)(C)[C@@H](N(C)C)[C@@H](O)[C@H]2O)[C@@H]3Oc2c(O)cc1cc2Cl [Compound 4, fijiolide A] | – | – | – | – | – | – | – | – | no activity | – |
| CN(C)[C@H]1[C@@H](O)[C@@H](O)[C@H](O[C@]23C=CC=C2c2c4ccc(c2Cl)[C@@H](O)COC(=O)C[C@H](N)c2cc(O)c(c(Cl)c2)O[C@H]43)OC1(C)C [Compound 5, fijiolide B] | – | – | – | – | – | – | – | – | no activity | – |
